# Measured values as given in patent US11649255B2, “Indazoles as hematopoietic progenitor kinase 1 (HPK1) inhibitors and methods using same” (1st Biotherapeutics, Inc., priority 2020, dated 2023).
# Like-named read-outs stand apart in the source and are kept apart here.
# Assays:
# [1] = biological target: recombinant human HPK1 (Homo sapiens (Human), UniProt Q92918); assay: HPK1 kinase assay (ADP-Glo); format: biochemical; settings: 25 μM ATP, MBP substrate
# How it was run: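 Activity was read as ADP formed, detected by ADP-Glo luminescence after the reaction of 5 ng recombinant human HPK1 with MBP and ATP (stocks 0.5 μg/μl and 25 μM) for 40 min at 30 °C. Buffer was Tris pH 7.5 with MgCl2, BSA and DTT, with compound in 0.5% DMSO. IC50 came from inhibition curves.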
# [2] = system: human peripheral blood pan T cells; assay: IFNγ and IL-2 analysis of human peripheral pan T cells; format: cell-based; settings: T-cell, CD3/CD28 bead stimulation, 100 nM Prostaglandin E2, 24 hr
# Method: IFNγ and IL-2 Analysis of Human Peripheral Pan T Cells
# Human peripheral blood pan T cells were purchased from STEMCELL™ Technologies Inc. Human peripheral blood pan T cells were thawed and suspended in DMEM media (10% FBS and 10 Penicillin/Streptomycin). 8×10^4 T cells were seeded in 96-well plate and incubated with various concentration of compounds and 100 nM Prostaglandin E2 for 1 hr. T cells were stimulated with Dynabeads Human T-Activator CD3/CD28 (Life Technologies) at a 1:3 cells: beads ratio. […] Data were analyzed with an MESO Quickplex SQ120 (Mesoscale Discovery).
# In Table 3, the values represent + for >1000 nM, ++ 200-1,000 nM, +++ for <200 nM and − for not determined.
# [3] = IFNγ secretion, read-out: IFNγ (EC50)
# [4] = IL-2 secretion, read-out: IL-2 (EC50)
# Sequence of recombinant human HPK1 (Q92918 whole entry): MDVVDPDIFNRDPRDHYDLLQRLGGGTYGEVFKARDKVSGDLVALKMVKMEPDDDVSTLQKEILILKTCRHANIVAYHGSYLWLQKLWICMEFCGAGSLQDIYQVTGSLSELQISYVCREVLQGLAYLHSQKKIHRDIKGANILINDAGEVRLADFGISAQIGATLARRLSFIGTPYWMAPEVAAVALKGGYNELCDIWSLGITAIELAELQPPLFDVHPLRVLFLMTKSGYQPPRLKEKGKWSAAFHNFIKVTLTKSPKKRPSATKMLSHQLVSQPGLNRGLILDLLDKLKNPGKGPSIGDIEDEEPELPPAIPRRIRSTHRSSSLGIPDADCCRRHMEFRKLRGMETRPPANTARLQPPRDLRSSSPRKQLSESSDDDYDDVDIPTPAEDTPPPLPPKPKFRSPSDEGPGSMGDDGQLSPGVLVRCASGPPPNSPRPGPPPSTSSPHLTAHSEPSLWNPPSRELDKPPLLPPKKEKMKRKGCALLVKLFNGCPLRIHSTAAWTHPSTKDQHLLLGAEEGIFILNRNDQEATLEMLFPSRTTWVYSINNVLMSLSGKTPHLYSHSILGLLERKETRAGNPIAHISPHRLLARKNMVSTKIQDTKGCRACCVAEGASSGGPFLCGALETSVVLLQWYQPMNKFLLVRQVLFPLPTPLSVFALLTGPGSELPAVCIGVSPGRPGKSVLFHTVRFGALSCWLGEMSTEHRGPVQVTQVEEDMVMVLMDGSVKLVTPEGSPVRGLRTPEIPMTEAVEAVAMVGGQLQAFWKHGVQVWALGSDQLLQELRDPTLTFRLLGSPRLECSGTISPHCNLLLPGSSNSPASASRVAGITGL
SMILES,IC50 [1],"EC50 [2, 3]","EC50 [2, 4]"
"CN(C)C(=O)c1c(F)c(Cl)c(-c2ccc3nc(NC(=O)[C@@H]4C[C@@H]4F)cn3c2)c2cn[nH]c12 [Example 320, 5-chloro-6-fluoro-4-(2-((1S,2S)-2-fluorocyclopropane-1-carboxamido)imidazo[1,2-a]pyridin-6-yl)-N,N-dimethyl-1H-indazole-7-carboxamide]",< 100 nM,200 to 1000 nM,
"CCN(C)c1c(F)c(SC)c(-c2ccc3nc(NC(=O)[C@@H]4C[C@@H]4F)cn3c2)c2cn[nH]c12 [Example 324, (1S,2S)-N-(6-(7-(ethyl(methyl)amino)-6-fluoro-5-(methylthio)-1H-indazol-4-yl)imidazo[1,2-a]pyridin-2-yl)-2-fluorocyclopropane-1-carboxamide]",< 100 nM,< 200 nM,200 to 1000 nM
"CCc1c(F)c(N(C)CC)c2[nH]ncc2c1-c1ccc2nc(NC(=O)[C@@H]3C[C@@H]3F)cn2c1 [Example 326, (1S,2S)-N-(6-(5-ethyl-7-(ethyl(methyl)amino)-6-fluoro-1H-indazol-4-yl)imidazo[1,2-a]pyridin-2-yl)-2-fluorocyclopropane-1-carboxamide]",< 100 nM,200 to 1000 nM,200 to 1000 nM
"CN(C)c1c(F)c(Cl)c(-c2ccc3nc(NC(=O)C4CC4)cn3c2)c2cn[nH]c12 [Example 327, N-(6-(5-chloro-7-(dimethylamino)-6-fluoro-1H-indazol-4-yl)imidazo[1,2-a]pyridin-2-yl)cyclopropanecarboxamide]",< 100 nM,< 200 nM,200 to 1000 nM
"Cc1c(F)c(C(=O)N(C)C)c2[nH]ncc2c1-c1ccc2nc(NC(=O)[C@@H]3C[C@@H]3F)cn2c1 [Example 329, 6-fluoro-4-(2-((1S,2S)-2-fluorocyclopropane-1-carboxamido)imidazo[1,2-a]pyridin-6-yl)-N,N,5-trimethyl-1H-indazole-7-carboxamide]",< 100 nM,200 to 1000 nM,200 to 1000 nM
"CN(C)c1c(F)c(Cl)c(-c2ccc3nc(NC(=O)[C@H]4C[C@@H]4F)cn3c2)c2cn[nH]c12 [Example 332, (1R,2S)-N-(6-(5-chloro-7-(dimethylamino)-6-fluoro-1H-indazol-4-yl)imidazo[1,2-a]pyridin-2-yl)-2-fluorocyclopropane-1-carboxamide]",< 100 nM,200 to 1000 nM,200 to 1000 nM
"CN(C)c1c(F)c(Cl)c(-c2ccc3nc(NC(=O)[C@@H]4C[C@H]4F)cn3c2)c2cn[nH]c12 [Example 333, (1S,2R)-N-(6-(5-chloro-7-(dimethylamino)-6-fluoro-1H-indazol-4-yl)imidazo[1,2-a]pyridin-2-yl)-2-fluorocyclopropane-1-carboxamide]",< 100 nM,200 to 1000 nM,200 to 1000 nM
"CN(C)c1c(F)c(Cl)c(-c2ccc3nc(NC(=O)[C@H]4C[C@H]4F)cn3c2)c2cn[nH]c12 [Example 334, (1R,2R)-N-(6-(5-chloro-7-(dimethylamino)-6-fluoro-1H-indazol-4-yl)imidazo[1,2-a]pyridin-2-yl)-2-fluorocyclopropane-1-carboxamide]",< 100 nM,200 to 1000 nM,200 to 1000 nM
"CC(C)Nc1c(F)c(Cl)c(-c2ccc3nc(NC(=O)[C@@H]4C[C@@H]4F)cn3c2)c2cn[nH]c12 [Example 359, (1S,2S)-N-(6-(5-chloro-6-fluoro-7-(isopropylamino)-1H-indazol-4-yl)imidazo[1,2-a]pyridin-2-yl)-2-fluorocyclopropane-1-carboxamide]",< 100 nM,200 to 1000 nM,200 to 1000 nM
"CN(c1c(F)c(Cl)c(-c2ccc3nc(NC(=O)[C@@H]4C[C@@H]4F)cn3c2)c2cn[nH]c12)C1CC1 [Example 361, (1S,2S)-N-(6-(5-chloro-7-(cyclopropyl(methyl)amino)-6-fluoro-1H-indazol-4-yl)imidazo[1,2-a]pyridin-2-yl)-2-fluorocyclopropane-1-carboxamide]",< 100 nM,200 to 1000 nM,> 1000 nM
"CN(C)c1c(F)c(Cl)c(-c2ccn3nc(NC(=O)[C@@H]4C[C@@H]4F)cc3c2)c2cn[nH]c12 [Example 484, (1S,2S)-N-(5-(5-chloro-7-(dimethylamino)-6-fluoro-1H-indazol-4-yl)pyrazolo[1,5-a]pyridin-2-yl)-2-fluorocyclopropane-1-carboxamide]",< 100 nM,< 200 nM,200 to 1000 nM
"CSc1c(F)c(C)c(-c2ccn3nc(NC(=O)[C@@H]4C[C@@H]4F)cc3c2)c2cn[nH]c12 [Example 488, (1S,2S)-2-fluoro-N-(5-(6-fluoro-5-methyl-7-(methylthio)-1H-indazol-4-yl)pyrazolo[1,5-a]pyridin-2-yl)cyclopropane-1-carboxamide]",< 100 nM,200 to 1000 nM,
"CN(c1c(F)c(Cl)c(-c2ccn3nc(NC(=O)[C@@H]4C[C@@H]4F)cc3c2)c2cn[nH]c12)C1CCC(O)CC1 (stereo partly drawn) [Example 503, (1S,2S)-N-(5-(5-chloro-6-fluoro-7-((4-hydroxycyclohexyl)(methyl)amino)-1H-indazol-4-yl)pyrazolo[1,5-a]pyridin-2-yl)-2-fluorocyclopropane-1-carboxamide]",< 100 nM,200 to 1000 nM,
"CCOc1c(F)c(C)c(-c2ccn3nc(NC(=O)[C@@H]4C[C@@H]4F)cc3c2)c2cn[nH]c12 [Example 509, (1S,2S)-N-(5-(7-ethoxy-6-fluoro-5-methyl-1H-indazol-4-yl)pyrazolo[1,5-a]pyridin-2-yl)-2-fluorocyclopropane-1-carboxamide]",< 100 nM,< 200 nM,200 to 1000 nM
"O=C(Nc1cc2cc(-c3c(Cl)c(F)c(SCCO)c4[nH]ncc34)ccn2n1)[C@@H]1C[C@@H]1F [Example 520, (1S,2S)-N-(5-(5-chloro-6-fluoro-7-((2-hydroxyethyl)thio)-1H-indazol-4-yl)pyrazolo[1,5-a]pyridin-2-yl)-2-fluorocyclopropane-1-carboxamide]",< 100 nM,200 to 1000 nM,
"CCc1c(F)c(SCC(=O)NC)c2[nH]ncc2c1-c1ccn2nc(NC(=O)[C@@H]3C[C@@H]3F)cc2c1 [Example 521, (1S,2S)-N-(5-(5-ethyl-6-fluoro-7-((2-(methylamino)-2-oxoethyl)thio)-1H-indazol-4-yl)pyrazolo[1,5-a]pyridin-2-yl)-2-fluorocyclopropane-1-carboxamide bis(2,2,2-trifluoroacetate)]",< 100 nM,< 200 nM,< 200 nM
"Cc1c(F)c(SCCO)c2[nH]ncc2c1-c1ccn2nc(NC(=O)[C@@H]3C[C@@H]3F)cc2c1 [Example 523, (1S,2S)-2-fluoro-N-(5-(6-fluoro-7-((2-hydroxyethyl)thio)-5-methyl-1H-indazol-4-yl)pyrazolo[1,5-a]pyridin-2-yl)cyclopropane-1-carboxamide]",< 100 nM,< 200 nM,
"CCNc1c(F)c(CC)c(-c2ccn3nc(NC(=O)[C@@H]4C[C@@H]4F)cc3c2)c2cn[nH]c12 [Example 524, (1S,2S)-N-(5-(5-ethyl-7-(ethylamino)-6-fluoro-1H-indazol-4-yl)pyrazolo[1,5-a]pyridin-2-yl)-2-fluorocyclopropane-1-carboxamide]",< 100 nM,< 200 nM,< 200 nM
